Data from ChEMBL document CHEMBL2375280, “Synthesis of novel 1,3,4-trisubstituted pyrazoles as anti-inflammatory and analgesic agents” (Eur J Med Chem, 2013).

Key:
Rattus norvegicus [1] = experiment: Antiinflammatory activity in Wistar albino rat assessed as inhibition of carrageenan-induced paw edema at 0.32 mmol/kg, ip administered 1 hr prior to carrageenan challenge measured at 2 hrs by plethysmometric analysis relative to control; format: functional
Rattus norvegicus [2] = experiment: Antiinflammatory activity in Wistar albino rat assessed as inhibition of carrageenan-induced paw edema at 0.32 mmol/kg, ip administered 1 hr prior to carrageenan challenge measured at 3 hrs by plethysmometric analysis relative to control; format: functional
Mus musculus = experiment: Analgesic activity in albino mouse assessed as protection against p-benzoquinone-induced writhing at 0.32 mmol/kg, ip administered 1 hr prior to p-benzoquinone challenge measured for 30 mins relative to control; format: functional
Rattus norvegicus [3] = experiment: Ulcerogenic effect in albino rat stomach assessed as ulcer index at 0.32 mmol/kg, po administered for 3 days measured 2 hrs post last dose; format: toxicity, organism-based; conditions: in vivo
Homo sapiens = organism: Homo sapiens; experiment: Selectivity ratio for COX1 (unknown origin) over COX2 (unknown origin)
[4] = Acute toxicity in ip dosed mouse assessed as mortality measured for 24 hrs; format: organism-based; conditions: in vivo
Rattus norvegicus [5] = experiment: Antiinflammatory activity in ip dosed Wistar albino rat assessed as inhibition of carrageenan-induced paw edema administered 1 hr prior to carrageenan challenge measured at 3 hrs by plethysmometric analysis; format: functional, organism-based
Rattus norvegicus [6] = experiment: Antiinflammatory activity in Wistar albino rat assessed as inhibition of carrageenan-induced paw edema at 0.16 mmol/kg, ip administered 1 hr prior to carrageenan challenge measured at 3 hrs by plethysmometric analysis relative to control; format: functional
Rattus norvegicus [7] = experiment: Antiinflammatory activity in Wistar albino rat assessed as inhibition of carrageenan-induced paw edema at 0.08 mmol/kg, ip administered 1 hr prior to carrageenan challenge measured at 3 hrs by plethysmometric analysis relative to control; format: functional

| SMILES | inhibition in vivo at 320 µmol/kg (Rattus norvegicus [1]) | inhibition in vivo at 320 µmol/kg (Rattus norvegicus [2]) | Activity (Mus musculus) | other results |
| --- | --- | --- | --- | --- |
| COc1ccc(C(=O)C(CC(=O)c2ccc(Cl)cc2)c2cn(-c3ccc(Cl)cc3)nc2-c2ccc(C)cc2)cc1 (centres undefined) | 16.1% | 23.9% | – | – |
| Cc1ccc(-c2nn(-c3ccc(S(N)(=O)=O)cc3)cc2/C=N\c2ccc(Cl)cc2)cc1 | 69.1% | 78.4% | 33.33% | UI (Rattus norvegicus [3]): 5.8 |
| COc1ccc(-c2nn(-c3ccc(Cl)cc3)cc2-c2cc(-c3ccc(Cl)cc3)[nH]c2-c2ccc(OC)cc2)cc1 | 10.5% | 20.7% | – | – |
| COc1ccc(-c2nn(-c3ccc(Cl)cc3)cc2/C=N\c2ccc(Cl)cc2)cc1 | 69.6% | 72.6% | 33.33% | UI (Rattus norvegicus [3]): 5.4; Selectivity ratio (Homo sapiens): 0.95 |
| COc1ccc(-c2nn(-c3ccc(S(N)(=O)=O)cc3)cc2C(CC(=O)c2ccc(Cl)cc2)C(=O)c2ccc(F)cc2)cc1 (centres undefined) | 72.2% | 68.1% | 33.33% | – |
| COc1ccc(C(=O)C(CC(=O)c2ccc(Cl)cc2)c2cn(-c3ccc(S(N)(=O)=O)cc3)nc2-c2ccc(OC)cc2)cc1 (centres undefined) | 30.8% | 22.5% | – | – |
| COc1ccc(-c2nn(-c3ccc(S(N)(=O)=O)cc3)cc2/C=N\c2ccc(Cl)cc2)cc1 | 63% | 62.8% | 50% | LD50 at 24 h [4]: 2440 µmol/kg |
| COc1ccc(-c2nn(-c3ccc(Cl)cc3)cc2C(CC(=O)c2ccc(Cl)cc2)C(=O)c2ccc(F)cc2)cc1 (centres undefined) | 19.8% | 37.8% | – | – |
| Cc1ccc(-c2nn(-c3ccc(S(N)(=O)=O)cc3)cc2C(CC(=O)c2ccc(Cl)cc2)C(=O)c2ccc(F)cc2)cc1 (centres undefined) | 53.5% | 56.2% | 50% | – |
| COc1ccc(-c2nn(-c3ccc(Cl)cc3)cc2/C=N\c2ccccc2)cc1 | 57.2% | 72.6% | 16.67% | – |
| COc1ccc(-c2[nH]c(-c3ccc(Cl)cc3)cc2-c2cn(-c3ccc(Cl)cc3)nc2-c2ccc(C)cc2)cc1 | 9.38% | 21.3% | – | – |
| Cc1ccc(-c2nn(-c3ccc(S(N)(=O)=O)cc3)cc2-c2cc(-c3ccc(Cl)cc3)[nH]c2-c2ccc(F)cc2)cc1 | 75.4% | 66.7% | 16.67% | LD50 at 24 h [4]: 3250 µmol/kg; UI (Rattus norvegicus [3]): 15; IC50 (Rattus norvegicus [5]): 0.21 mmol/kg; inhibition in vivo at 160 µmol/kg (Rattus norvegicus [6]): 43.6%; Selectivity ratio (Homo sapiens): 0.87; inhibition in vivo at 80 µmol/kg (Rattus norvegicus [7]): 14% |
| Cc1ccc(-c2nn(-c3ccc(Cl)cc3)cc2C=O)cc1 | 49.9% | 56% | – | – |
| COc1ccc(/N=C\c2cn(-c3ccc(S(N)(=O)=O)cc3)nc2-c2ccc(C)cc2)cc1 | 48.8% | 56.2% | – | – |
| COc1ccc(-c2nn(-c3ccc(S(N)(=O)=O)cc3)cc2/C=C\C(=O)c2ccc(Cl)cc2)cc1 | 55.6% | 56% | – | – |
| COc1ccc(-c2[nH]c(-c3ccc(Cl)cc3)cc2-c2cn(-c3ccc(S(N)(=O)=O)cc3)nc2-c2ccc(C)cc2)cc1 | 49.7% | 34.2% | 50% | – |
| Cc1ccc(-c2nn(-c3ccc(S(N)(=O)=O)cc3)cc2/C=N\c2ccccc2)cc1 | 58.1% | 57.1% | – | – |
| COc1ccc(-c2nn(-c3ccc(S(N)(=O)=O)cc3)cc2C=O)cc1 | 83% | 81.5% | 16.67% | UI (Rattus norvegicus [3]): 11.2 |
| COc1ccc(/N=C\c2cn(-c3ccc(Cl)cc3)nc2-c2ccc(OC)cc2)cc1 | 69.2% | 82.2% | 66.67% | LD50 at 24 h [4]: 3250 µmol/kg; UI (Rattus norvegicus [3]): 14.32; IC50 (Rattus norvegicus [5]): 0.2 mmol/kg; inhibition in vivo at 160 µmol/kg (Rattus norvegicus [6]): 43%; Selectivity ratio (Homo sapiens): 1.17; inhibition in vivo at 80 µmol/kg (Rattus norvegicus [7]): 37.5% |

| SMILES | inhibition in vivo at 320 µmol/kg (Rattus norvegicus [1]) | inhibition in vivo at 320 µmol/kg (Rattus norvegicus [2]) | Activity (Mus musculus) | other results |
| --- | --- | --- | --- | --- |
| Cc1ccc(-c2nn(-c3ccc(S(N)(=O)=O)cc3)cc2/C=C\C(=O)c2ccc(Cl)cc2)cc1 | 53.3% | 47.6% | – | – |
| COc1ccc(-c2nn(-c3ccc(S(N)(=O)=O)cc3)cc2/C=N\c2ccccc2)cc1 | 38.5% | 55.4% | – | – |
| COc1ccc(/N=C\c2cn(-c3ccc(Cl)cc3)nc2-c2ccc(C)cc2)cc1 | 62% | 48.9% | 16.67% | – |
| COc1ccc(/N=C\c2cn(-c3ccc(S(N)(=O)=O)cc3)nc2-c2ccc(OC)cc2)cc1 | 65.8% | 68.5% | 33.33% | LD50 at 24 h [4]: 3250 µmol/kg; UI (Rattus norvegicus [3]): 16.4 |
| COc1ccc(C(=O)C(CC(=O)c2ccc(Cl)cc2)c2cn(-c3ccc(Cl)cc3)nc2-c2ccc(OC)cc2)cc1 (centres undefined) | 0% | 9.61% | – | – |
| Cc1ccc(-c2nn(-c3ccc(Cl)cc3)cc2-c2cc(-c3ccc(Cl)cc3)[nH]c2-c2ccc(F)cc2)cc1 | 38.3% | 21% | 33.33% | UI (Rattus norvegicus [3]): 13 |
| Cc1ccc(-c2nn(-c3ccc(S(N)(=O)=O)cc3)cc2C=O)cc1 | 58.4% | 68.2% | 16.67% | UI (Rattus norvegicus [3]): 9.6 |
| Cc1ccc(-c2nn(-c3ccc(Cl)cc3)cc2/C=N\c2ccc(Cl)cc2)cc1 | 48.3% | 49.2% | – | – |
| CCCCC1C(=O)N(c2ccccc2)N(c2ccccc2)C1=O [PHENYLBUTAZONE] | 57.3% | 70.5% | 33.33% | UI (Rattus norvegicus [3]): 30.2; IC50 (Rattus norvegicus [5]): 0.22 mmol/kg; inhibition in vivo at 160 µmol/kg (Rattus norvegicus [6]): 42.1%; inhibition in vivo at 80 µmol/kg (Rattus norvegicus [7]): 20% |
| COc1ccc2c(c1)c(CC(=O)O)c(C)n2C(=O)c1ccc(Cl)cc1 | – | – | – | Selectivity ratio (Homo sapiens): 3.94 |
| COc1ccc(-c2nn(-c3ccc(S(N)(=O)=O)cc3)cc2-c2cc(-c3ccc(Cl)cc3)[nH]c2-c2ccc(OC)cc2)cc1 | 48.1% | 28.6% | – | – |
| COc1ccc(-c2nn(-c3ccc(Cl)cc3)cc2/C=C\C(=O)c2ccc(Cl)cc2)cc1 | 53.7% | 66.4% | – | – |
| Cc1ccc(-c2nn(-c3ccc(Cl)cc3)cc2C(CC(=O)c2ccc(Cl)cc2)C(=O)c2ccc(F)cc2)cc1 (centres undefined) | 25.9% | 19.4% | – | – |
| COc1ccc(C(=O)C(CC(=O)c2ccc(Cl)cc2)c2cn(-c3ccc(S(N)(=O)=O)cc3)nc2-c2ccc(C)cc2)cc1 (centres undefined) | 53.8% | 61.1% | 50% | – |
| COc1ccc(-c2nn(-c3ccc(Cl)cc3)cc2-c2cc(-c3ccc(Cl)cc3)[nH]c2-c2ccc(F)cc2)cc1 | 53.7% | 61.9% | 33.33% | UI (Rattus norvegicus [3]): 12 |
| COc1ccc(-c2nn(-c3ccc(Cl)cc3)cc2C=O)cc1 | 63.1% | 57.6% | 33.33% | – |
| Cc1ccc(-c2nn(-c3ccc(Cl)cc3)cc2/C=N\c2ccccc2)cc1 | 40.1% | 49.3% | – | – |
| Cc1ccc(-c2nn(-c3ccc(Cl)cc3)cc2/C=C\C(=O)c2ccc(Cl)cc2)cc1 | 49.2% | 61.4% | – | – |
| COc1ccc(-c2nn(-c3ccc(S(N)(=O)=O)cc3)cc2-c2cc(-c3ccc(Cl)cc3)[nH]c2-c2ccc(F)cc2)cc1 | 55.7% | 55.9% | – | – |
